Laboratory results taken from patent publication US10251408B2, “Catechin function enhancement method” (KYUSHU UNIVERSITY, NATIONAL UNIVERSITY CORPORATION, priority 2014, dated 2019).

Tests used:
[1] = system: Human multiple myeloma cell line U266; assay: Cancer cell apoptosis induction, Annexin V/PI flow cytometry; assay type: cell-based; conditions: EGCG and eriodictyol 5 μM each, 96 hours, FIG. 1
Method: Human multiple myeloma cell line U266 was subcultured and maintained in RPMI 1640 medium supplemented with 10% fetal bovine serum (FCS) under conditions of 37° C. and water vapor-saturated 5% CO2. The cells were maintained in the logarithmic growth phase. The RPMI 1640 medium used for culture was prepared as follows: per liter of ultrapure water, RPMI 1640 medium (10.4 g), HEPES (2.38 g), injectable penicillin G potassium (100,000 units), streptomycin sulfate injectable (100 mg) and NaHCO3 (2.0 g) were suspended and then filter-sterilized.
Then, the RPMI 1640 medium was supplemented with FCS and used for cell culture. To examine the apoptosis induction effect on human multiple myeloma cell line U266 produced upon combination of EGCG and eriodictyol, double staining was performed with Annexin V and PI. For use as a propidium iodide (PI) stain solution, PI (Sigma) was suspended in PBS at a concentration of 50 μg/mL. […]
Then, the fully suspended cell culture was centrifuged at 300×g for 5 minutes to remove the supernatant, and then suspended with the Annexin V binding buffer, counted with a hemacytometer, centrifuged again at 300×g for 5 minutes and then suspended with the Annexin V binding buffer. […] After compensation, the Annexin V Alexa Fluor 488 conjugate was measured at FL 1 and cells determined to be positive were regarded as apoptotic cells. […]

[2] = system: high-fat high-sucrose diet-fed obese model mice; assay: High-fat high-sucrose diet-fed mice: body weight, serum total cholesterol, LDL; assay type: in vivo, mouse; conditions: C57BL/6J mice, Yabukita 0.2% and/or eriodictyol 0.45 g/kg diet, 8 weeks, FIG. 5
Source text: Male C57BL/6J mice at 12 weeks of age were preliminarily kept for 1 week and then divided into 5 groups such that the average body weight was equal in all groups, i.e., a control (AIN-93G-based diet) group, a HF/HS (high-fat high-sucrose diet) group, a Yabukita (0.2%) (HF/HS+Yabukita) group, an eriodictyol (HF/HS+eriodictyol) group, and a Yabukita+eriodictyol (HF/HS+Yabukita+eriodictyol) group. A feed supplemented with Yabukita (0.2%) and eriodictyol (0.45 g/kg diet) was given to the mice. The feed was given in an amount of 4 g/day and the mice were kept for 8 weeks under ad libitum drinking conditions. After being fasted for 16 hours, the mice were sacrificed by abdominal aortic puncture under isoflurane anesthesia. The collected blood samples were allowed to stand at 37° C. for 2 hours to cause coagulation and then centrifuged at 4° C. at 2000×g for 15 minutes to collect serum fractions. The values of serum total cholesterol and LDL were measured. […] Yabukita and eriodictyol were examined for their effect on obesity in high-fat high-sucrose diet-fed obese model mice. Male C57BL/6J mice at 12 weeks of age were preliminarily kept for 1 week and then divided into the respective groups such that the average body weight was equal in all groups. Each feed was given in an amount of 4 g/day and the mice were kept for 8 weeks under ad libitum drinking conditions. After being measured for their body weight, the mice were fasted for 16 hours and then sacrificed by abdominal aortic puncture under isoflurane anesthesia. Blood samples collected by puncture were allowed to stand at 37° C. for 2 hours to cause coagulation and then centrifuged at 4° C. at 2000×g for 15 minutes to collect serum fractions. The values of serum total cholesterol and LDL were measured.

O=C1C[C@@H](c2ccc(O)c(O)c2)Oc2cc(O)cc(O)c21 [eriodictyol]
effect on the cancer cell apoptosis induction effect of EGCG (Annexin V positive cells) [1]: enhance the apoptosis induction effect of EGCG | high-fat high-sucrose diet-induced increase in body weight [2]: no effect | high-fat high-sucrose diet-induced increase in serum cholesterol value [2]: no effect | high-fat high-sucrose diet-induced increase in LDL value ([2]; serum): no effect
